# Assays:
# [1] = tested on: glucocorticoid receptor function; assay: one or more of the above assays (GR binding and glucocorticoid receptor cell assays: aromatase, IL-6, TAT, MMTV-Luc, IL-8, ICAM-Luc); format: cell-based; settings: assay not specified per compound
# [2] = target: T1, human glucocorticoid receptor (GR) complex (Homo sapiens, UniProt P04150); assay: Glucocorticoid receptor competitive binding assay (fluorescence polarization, TAMRA-labeled dexamethasone probe); settings: compounds of Formula (IA)
# T1 construct: made in house; host or cells: insect expression system (baculovirus lysate)
# T1 sequence (P04150 1-777): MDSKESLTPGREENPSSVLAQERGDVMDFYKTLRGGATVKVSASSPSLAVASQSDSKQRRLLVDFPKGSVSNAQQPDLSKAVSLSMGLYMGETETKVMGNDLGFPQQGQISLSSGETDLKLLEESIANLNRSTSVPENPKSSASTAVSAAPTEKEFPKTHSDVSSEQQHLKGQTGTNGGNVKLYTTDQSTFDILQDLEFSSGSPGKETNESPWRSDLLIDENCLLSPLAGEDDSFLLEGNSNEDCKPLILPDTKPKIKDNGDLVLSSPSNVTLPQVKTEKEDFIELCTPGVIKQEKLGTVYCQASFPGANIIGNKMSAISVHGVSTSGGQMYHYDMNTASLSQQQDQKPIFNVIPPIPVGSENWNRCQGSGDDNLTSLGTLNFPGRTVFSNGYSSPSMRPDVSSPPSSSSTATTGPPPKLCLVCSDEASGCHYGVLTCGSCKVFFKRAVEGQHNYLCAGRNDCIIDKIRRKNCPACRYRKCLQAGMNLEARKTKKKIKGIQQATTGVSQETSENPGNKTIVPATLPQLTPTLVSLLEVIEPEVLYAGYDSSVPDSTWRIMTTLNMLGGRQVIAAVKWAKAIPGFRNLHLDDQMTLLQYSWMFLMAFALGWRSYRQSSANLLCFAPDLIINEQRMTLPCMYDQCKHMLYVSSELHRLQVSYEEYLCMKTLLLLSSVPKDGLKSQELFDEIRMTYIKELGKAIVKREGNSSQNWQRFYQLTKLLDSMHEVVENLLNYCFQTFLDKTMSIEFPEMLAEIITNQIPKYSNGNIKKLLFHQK
# In short: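 Fluorescence-polarization competition against 15 nM TAMRA-dexamethasone (stock added to the mix) for human GR complex from baculovirus lysate diluted 1:170. Buffer: 10 mM TES, 50 mM KCl, 20 mM Na2MoO4, 1.5 mM EDTA, 0.04% CHAPS, 10% glycerol, 1 mM DTT, pH 7.4. IC50 from 4-parameter logistic fit.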
activity in the GR binding assay [2],Compound,activity as agonists of the glucocorticoid receptor function in one or more of the above assays [1]
potent activity,"CC(C)(CC(O)(Cc1ccnc2ccccc12)C(F)(F)F)c1cc(C#N)cc2c1OCC2 (stereo not shown) [7-(4,4,4-Trifluoro-3-hydroxy-1,1-dimethyl-3-quinolin-4-ylmethylbutyl)-2,3-dihydrobenzofuran-5-carbonitrile]",potent agonists
potent activity,"Cc1ccc(O)c(C(C)(C)CC(O)(Cc2cc3ccccc3[nH]2)C(F)(F)F)c1 (stereo not shown) [4-Methyl-2-[4,4,4-trifluoro-3-hydroxy-3-(1H-indol-2-ylmethyl)-1,1-dimethylbutyl]phenol]",potent agonists
potent activity,"CC(C)(CC(O)(Cc1ccnc2ccccc12)C(F)(F)F)c1cccc(O)c1 (stereo not shown) [3-(4,4,4-Trifluoro-3-hydroxy-1,1-dimethyl-3-quinolin-4-ylmethylbutyl)phenol]",potent agonists
potent activity,COc1ccc(F)cc1C(C)(C)CC(O)(Cc1cc2cc(C(=O)NCC#N)ccc2[nH]1)C(F)(F)F (stereo not shown) [2-[4-(5-Fluoro-2-methoxyphenyl)-2-hydroxy-4-methyl-2-trifluoromethylpentyl]-1H-indole-5-carboxylic acid cyanomethylamide],potent agonists
potent activity,COc1ccc(S(C)(=O)=O)cc1C(C)(C)CC(O)(Cc1[nH]c2ccccc2c1C#N)C(F)(F)F (stereo not shown) [2-[2-Hydroxy-4-(5-methanesulfonyl-2-methoxyphenyl)-4-methyl-2-trifluoromethylpentyl]-1H-indole-3-carbonitrile],potent agonists
potent activity,COc1ccc(F)cc1C(C)(C)CC(O)(Cc1cc2cc(C(=O)N3CCOCC3)ccc2[nH]1)C(F)(F)F (stereo not shown) [{2-[4-(5-Fluoro-2-methoxyphenyl)-2-hydroxy-4-methyl-2-trifluoromethylpentyl]-1H-indol-5-yl}morpholin-4-ylmethanone],potent agonists
potent activity,COc1ccc(F)cc1C(C)(C)CC(O)(Cc1cc2cc(C(=O)N3CCCC3)ccc2[nH]1)C(F)(F)F (stereo not shown) [{2-[4-(5-Fluoro-2-methoxyphenyl)-2-hydroxy-4-methyl-2-trifluoromethylpentyl]-1H-indol-5-yl}pyrrolidin-1-ylmethanone],potent agonists
potent activity,"CC(C)(CC(O)(Cc1cc2ncncc2[nH]1)C(F)(F)F)c1cc(Cl)cc2c1OCC2 (stereo not shown) [4-(5-Chloro-2,3-dihydrobenzofuran-7-yl)-1,1,1-trifluoro-4-methyl-2-(5H-pyrrolo[3,2-d]pyrimidin-6-ylmethyl)pentan-2-ol]",potent agonists
potent activity,"Cc1cccc(C)c1C(C)(C)CC(O)(Cc1cc2ccccc2[nH]1)C(F)(F)F (stereo not shown) [4-(2,6-Dimethylphenyl)-1,1,1-trifluoro-2-(1H-indol-2-ylmethyl)-4-methylpentan-2-ol]",potent agonists
potent activity,COC(=O)CNC(=O)c1ccc2[nH]c(CC(O)(CC(C)(C)c3cc(F)ccc3OC)C(F)(F)F)cc2c1 (stereo not shown) [({2-[4-(5-Fluoro-2-methoxyphenyl)-2-hydroxy-4-methyl-2-trifluoromethylpentyl]-1H-indole-5-carbonyl}amino)acetic acid methyl ester],potent agonists
potent activity,"CC(C)(CC(O)(Cc1ccnc2ccccc12)C(F)(F)F)c1cccc(Cl)c1 (stereo not shown) [4-(3-Chlorophenyl)-1,1,1-trifluoro-4-methyl-2-quinolin-4-ylmethylpentan-2-ol]",potent agonists

# Second part, the compound before the results:
Compound,activity in the GR binding assay [2],activity as agonists of the glucocorticoid receptor function in one or more of the above assays [1]
"Cc1cc(C)c(C(C)(C)CC(O)(Cc2[nH]c3ccccc3c2C#N)C(F)(F)F)cc1O (stereo not shown) [2-[2-Hydroxy-4-(5-hydroxy-2,4-dimethylphenyl)-4-methyl-2-trifluoromethylpentyl]-1H-indole-3-carbonitrile]",potent activity,potent agonists
"COc1ccc(F)cc1C(C)(C)CC(O)(Cc1cc2c(Cl)nc(N)nc2[nH]1)C(F)(F)F (stereo not shown) [2-(2-Amino-4-chloro-7H-pyrrolo[2,3-d]pyrimidin-6-ylmethyl)-1,1,1-trifluoro-4-(5-fluoro-2-methoxyphenyl)-4-methylpentan-2-ol]",potent activity,potent agonists
"CC(C)(CC(O)(Cc1ccnc2ccccc12)C(F)(F)F)c1ccc(C(F)(F)F)cc1 (stereo not shown) [1,1,1-Trifluoro-4-methyl-2-quinolin-4-ylmethyl-4-(4-trifluoromethylphenyl)pentan-2-ol]",potent activity,potent agonists
"COc1ccc(F)cc1C(C)(C)CC(O)(Cc1cc2ccnc(F)c2[nH]1)C(F)(F)F (stereo not shown) [1,1,1-Trifluoro-4-(5-fluoro-2-methoxyphenyl)-2-(7-fluoro-1H-pyrrolo[2,3-c]pyridin-2-ylmethyl)-4-methylpentan-2-ol]",potent activity,potent agonists
"COc1ccc(F)cc1C(C)(C)CC(O)(Cc1[nH]c2ccncc2c1CN(C)C)C(F)(F)F (stereo not shown) [2-(3-Dimethylaminomethyl-1H-pyrrolo[3,2-c]pyridin-2-ylmethyl)-1,1,1-trifluoro-4-(5-fluoro-2-methoxyphenyl)-4-methylpentan-2-ol]",potent activity,potent agonists
"COc1ccc(F)cc1C(C)(C)CC(O)(Cc1ccnc2cc(C)ccc12)C(F)(F)F (stereo not shown) [1,1,1-Trifluoro-4-(5-fluoro-2-methoxyphenyl)-4-methyl-2-(7-methylquinolin-4-ylmethyl)pentan-2-ol]",potent activity,potent agonists
"CC(C)(CC(O)(Cc1ccnc2ccccc12)C(F)(F)F)c1ccccc1F (stereo not shown) [1,1,1-Trifluoro-4-(2-fluorophenyl)-4-methyl-2-quinolin-4-ylmethylpentan-2-ol]",potent activity,potent agonists
"CC(C)(CC(O)(Cc1ccnc2ccccc12)C(F)(F)F)c1ccccc1C(F)(F)F (stereo not shown) [1,1,1-Trifluoro-4-methyl-2-quinolin-4-ylmethyl-4-(2-trifluoromethylphenyl)pentan-2-ol]",potent activity,potent agonists
"Cc1cc(CC(O)(CC(C)(C)c2ccc(F)cc2)C(F)(F)F)cc(C)n1 (stereo not shown) [2-(2,6-Dimethylpyridin-4-ylmethyl)-1,1,1-trifluoro-4-(4-fluorophenyl)-4-methylpentan-2-ol]",potent activity,potent agonists

# — US8741897B2, “Glucocorticoid mimetics, methods of making them, pharmaceutical compositions and uses thereof” (Boehringer Ingelheim Pharmaceuticals Inc., priority 2003, dated 2014)
